Data from patent US8815835B2, “9-aminonoscapine and its use in treating cancers, including drug-resistant cancers” (Emory University, priority 2008, dated 2014).

Columns and labels:
tubulin [1] = assay: Tubulin binding assay (fluorescence quenching, dissociation constant); settings: 2 μM tubulin, 25 mM PIPES pH 6.8, 30 min at 25° C.; double reciprocal plot; mean±SD, four experiments
Method: Noscapine and 9-aminonoscapine (0-150 μM) were incubated with 2 μM tubulin in 25 mM PIPES, pH 6.8, 3 mM MgSO4, and 1 mM EGTA for 30 min at 25° C. The fluorescence intensities of tubulin in the absence and presence of different concentrations of the agents were monitored in a JASCO FP-6500 spectrofluorometer (JASCO, Tokyo, Japan) using a cuvette of 0.3-cm path length.
The excitation wavelength was 295 nm. The inner filter effects were corrected using a formula: […],
where Aex and Aem are the absorbance at the excitation and emission wavelengths.
The dissociation constant (Kd) was estimated using the following equation. ΔF=ΔFmaxL/(Kd+L)
where, ΔF is change in the fluorescence intensity of the tubulin upon binding to noscapine or 9-aminonoscapine, ΔFmax is the maximum change in the fluorescence intensity of the protein when it is fully bound with noscapine or 9-aminonoscapine, and L is the concentration of the ligand.
The ΔFmax value was calculated by the GraphPad Prism 5 software. ΔF was calculated by subtracting the fluorescence intensity of tubulin in the absence of noscapine or 9-aminonoscapine from the fluorescence intensity of tubulin in the presence of different concentrations of noscapine or 9-aminonoscapine.
The data were statistically analyzed and curve fitted using GraphPad Prism 5 software. […]

tubulin [2] = assay: Sedimentation assay of tubulin polymerization (polymer mass); format: biochemical; settings: for Average % increase in polymer level: tubulin 10 μM, 37° C., 30 min
Method: Tubulin solution was centrifuged for 10 min at 80000 g at 4° C. Soluble tubulin was measured by Bradford method. Tubulin (10 μM) was mixed with different concentrations of 9-amino-Noscapine ([…]) in the assembly buffer (100 mM PIPES at pH 6.8, 3 mM MgSO4, 1 mM EGTA, 1 mM GTP, and 1 M sodium glutamate). A reaction control with DMSO was also set up.
Polymerization was carried on by maintaining the temperature at 37° C. in the water bath for 30 min. After polymerization, the reaction mixture was centrifuged at 120000 g at 30° C. for 30 min. The soluble tubulin content was measured by Bradford method. Polymer mass of tubulin was found out by deducting soluble tubulin mass from the total tubulin content.
Tubulin was polymerized in presence or absence of 9-aminonoscapine to observe its effect on polymer formation. Polymer mass of tubulin was measured by sedimentation assay. Before polymerization soluble tubulin comprises total tubulin. Total tubulin content was measured by measuring soluble tubulin by Bradford method. After polymerization, soluble tubulin content was measured and deducted from total tubulin content to find out the polymeric tubulin level.

[3] = test system: panel of 60 human tumor cell lines; assay: NCI 60-tumor cell line panel, Sulforhodamine B proliferation assay; format: cell-based; settings: 48 h treatment, in words; IC50 values only in FIG. 2
Method: The panel of 60 human tumor cell lines is organized into subpanels representing leukemia, non-small cell lung, colon, CNS, melanoma, renal, ovarian, breast and prostrate cancer lines. Cells were treated with 9-aminonoscapine at increasing gradient concentrations for 48 h. The IC50 values, which stand for the drug concentration needed to prevent cell proliferation by 50% was then measured using an in vitro Sulforhodamine B assay. Panels show bar-graphically the comparison of IC50 values of 9-aminonoscapine (black bars) for cancer cell lines of various tissue origins.

[4] = test system: 1A9 (ovarian cancer cells); assay: Cell proliferation inhibition, 1A9; format: cell-based; settings: 1A9, in words
[5] = test system: paclitaxel-resistant variant (1A9/PTX22); assay: Cell proliferation inhibition, 1A9/PTX22; format: cell-based; settings: 1A9/PTX22, in words
[6] = test system: human lymphoblastoid cells CEM; assay: Cell proliferation inhibition, CEM; format: cell-based; settings: in words
[7] = test system: vinblastine-resistant variant CEM/VLB100; assay: Cell proliferation inhibition, CEM/VLB100; format: cell-based, human; settings: CEM/VLB100, in words
[8] = test system: teniposide-resistant variant CEM/VM-1-5; assay: Cell proliferation inhibition, CEM/VM-1-5; format: cell-based, human; settings: CEM/VM-1-5, in words

Compound | Kd (tubulin [1]) | Average % increase in polymer level (tubulin [2]; 25 μM 9-aminonoscapine) | Average % increase in polymer level (tubulin [2]; 50 μM 9-aminonoscapine) | Average % increase in polymer level (tubulin [2]; 100 μM 9-aminonoscapine) | Average % increase in polymer level (tubulin [2]; 100 μM 9-aminonoscapine, listed as 9-amino-noscapine) | effect on the assembly of tubulin into microtubules in vitro (tubulin [2]; in words) | proliferation of various human cancer cells [3] | inhibition of cell proliferation [4] | inhibition of cell proliferation [5] | inhibition of cell proliferation [6] | inhibition of cell proliferation [7] | inhibition of cell proliferation [8]
COc1ccc2c(c1OC)C(=O)O[C@@H]2[C@H]1c2c(c(N)c3c(c2OC)OCO3)CCN1C [9-aminonoscapine, (S)-6,7-dimethoxy-3-((R)-4-methoxy-6-methyl-9-amino-5,6,7,8-tetrahydro-[1,3]dioxolo[4,5-g]isoquinolin-5-yl)isobenzofuran-1(3H)-one] | 14 ± 1 µM | 2.8 ± 0.98% | 3.2 ± 3.6% | 6.3 ± 3.8% | 6.3±3.8% | negligible effect | inhibits the proliferation | effectively inhibits cell proliferation | effectively inhibits cell proliferation | effectively inhibits cell proliferation | effectively inhibits cell proliferation | effectively inhibits cell proliferation
COc1ccc2c(c1OC)C(=O)O[C@@H]2[C@H]1c2c(cc3c(c2OC)OCO3)CCN1C [noscapine, (S)-6,7-dimethoxy-3-((R)-4-methoxy-6-methyl-5,6,7,8-tetrahydro[1,3]-dioxolo-[4,5-g]isoquinolin-5-yl)isobenzo-furan-1(3H)-one] | 152 ± 1 µM |  |  |  |  |  |  |  |  |  |  | 
